Earlier results on one compound are cited in PubChem BioAssay AID1259409 (Chemical Carcinogenesis Research Information System (CCRIS), 2018).

This data set deals with rodent chemically induced tumor inhibition, incidence and multiplicity. The data set can be described thus: CCRIS tumor inhibitor studies. The following applies: Route [Inhibitor]: ORAL, Promoter: NONE USED.

SMILES strings stand for the structures.

As for `CC1=C(/C=C/C(C)=C/C=C/C(C)=C/C(=O)NCCO)C(C)(C)CCC1`, the “tumour outcome (control, treated, inhibition, significance)” value (Carcinogen: N-NITROSOBIS(2-OXYPROPYL)AMINE, 60599-38-4, Dose [Inhibitor]: 0.05, 0.1 OR 0.2 MILLIMOLAR/KG DIET FOR 32 WK STARTING 1 WK AFTER THE CARCINOGEN DOSE (STUDY DURATION: 33 WK), Species: HAMSTER, Strain/Sex: SYRIAN/FEMALE, Target Tissue: Type of Lesion: COMMON DUCT: ADENOMA, Dose [Carcinogen]: 40 MG/KG ONCE) is reported as 4/10 (40%), 19/29 (66%), -65%, not significant; the “tumour outcome (control, treated, inhibition, significance)” value (Carcinogen: N-NITROSOBIS(2-OXYPROPYL)AMINE, 60599-38-4, Dose [Inhibitor]: 0.05, 0.1 OR 0.2 MILLIMOLAR/KG DIET FOR 32 WK STARTING 1 WK AFTER THE CARCINOGEN DOSE (STUDY DURATION: 33 WK), Species: HAMSTER, Strain/Sex: SYRIAN/FEMALE, Target Tissue: Type of Lesion: GALL BLADDER: ADENOMA, Dose [Carcinogen]: 40 MG/KG ONCE) is listed as 6/10 (60%), 17/29 (59%), 2%, not significant; the “tumour outcome (control, treated, inhibition, significance)” value (Carcinogen: N-NITROSOBIS(2-OXYPROPYL)AMINE, 60599-38-4, Dose [Inhibitor]: 0.05, 0.1 OR 0.2 MILLIMOLAR/KG DIET FOR 32 WK STARTING 1 WK AFTER THE CARCINOGEN DOSE (STUDY DURATION: 33 WK), Species: HAMSTER, Strain/Sex: SYRIAN/FEMALE, Target Tissue: Type of Lesion: LUNG: ADENOMA, Dose [Carcinogen]: 40 MG/KG ONCE) was 3/10 (30%), 4/29 (14%), 53%, p<0.025; the “tumour outcome (control, treated, inhibition, significance)” value (Carcinogen: N-NITROSOBIS(2-OXYPROPYL)AMINE, 60599-38-4, Dose [Inhibitor]: 0.05, 0.1 OR 0.2 MILLIMOLAR/KG DIET FOR 32 WK STARTING 1 WK AFTER THE CARCINOGEN DOSE (STUDY DURATION: 33 WK), Species: HAMSTER, Strain/Sex: SYRIAN/FEMALE, Target Tissue: Type of Lesion: PANCREAS: ADENOMA, Dose [Carcinogen]: 40 MG/KG ONCE) was 10/10 (100%), 29/29 (100%), 0%, not significant; the “tumour outcome (control, treated, inhibition, significance)” value (Carcinogen: N-NITROSOBIS(2-OXYPROPYL)AMINE, 60599-38-4, Dose [Inhibitor]: 0.05, 0.1 OR 0.2 MILLIMOLAR/KG DIET FOR 32 WK STARTING 1 WK AFTER THE CARCINOGEN DOSE (STUDY DURATION: 33 WK), Species: HAMSTER, Strain/Sex: SYRIAN/FEMALE, Target Tissue: Type of Lesion: PANCREAS: CARCINOMA, Dose [Carcinogen]: 40 MG/KG ONCE) is 4/10 (40%), 15/29 (52%), -30%, not significant; the “tumour outcome (control, treated, inhibition, significance)” value (Carcinogen: N-NITROSOBIS(2-OXYPROPYL)AMINE, 60599-38-4, Dose [Inhibitor]: 0.05, 0.1 OR 0.2 MILLIMOLAR/KG DIET FOR 32 WK STARTING 1 WK AFTER THE CARCINOGEN DOSE (STUDY DURATION: 33 WK), Species: HAMSTER, Strain/Sex: SYRIAN/MALE, Target Tissue: Type of Lesion: COMMON DUCT: ADENOMA, Dose [Carcinogen]: 40 MG/KG ONCE) was 4/12 (33%), 23/29 (79%), -139%, not significant. The “tumour outcome (control, treated, inhibition, significance)” value reads like this: (Carcinogen: N-NITROSOBIS(2-OXYPROPYL)AMINE, 60599-38-4, Dose [Inhibitor]: 0.05, 0.1 OR 0.2 MILLIMOLAR/KG DIET FOR 32 WK STARTING 1 WK AFTER THE CARCINOGEN DOSE (STUDY DURATION: 33 WK), Species: HAMSTER, Strain/Sex: SYRIAN/MALE, Target Tissue: Type of Lesion: GALL BLADDER: ADENOMA, Dose [Carcinogen]: 40 MG/KG ONCE) 3/12 (25%), 17/29 (59%), -136%, not significant; (Carcinogen: N-NITROSOBIS(2-OXYPROPYL)AMINE, 60599-38-4, Dose [Inhibitor]: 0.05, 0.1 OR 0.2 MILLIMOLAR/KG DIET FOR 32 WK STARTING 1 WK AFTER THE CARCINOGEN DOSE (STUDY DURATION: 33 WK), Species: HAMSTER, Strain/Sex: SYRIAN/MALE, Target Tissue: Type of Lesion: LIVER: ADENOMA, Dose [Carcinogen]: 40 MG/KG ONCE) 6/12 (50%), 8/29 (28%), 44%, not significant; (Carcinogen: N-NITROSOBIS(2-OXYPROPYL)AMINE, 60599-38-4, Dose [Inhibitor]: 0.05, 0.1 OR 0.2 MILLIMOLAR/KG DIET FOR 32 WK STARTING 1 WK AFTER THE CARCINOGEN DOSE (STUDY DURATION: 33 WK), Species: HAMSTER, Strain/Sex: SYRIAN/MALE, Target Tissue: Type of Lesion: LUNG: ADENOMA, Dose [Carcinogen]: 40 MG/KG ONCE) 1/12 (8%), 5/29 (17%), -113%, not significant; (Carcinogen: N-NITROSOBIS(2-OXYPROPYL)AMINE, 60599-38-4, Dose [Inhibitor]: 0.05, 0.1 OR 0.2 MILLIMOLAR/KG DIET FOR 32 WK STARTING 1 WK AFTER THE CARCINOGEN DOSE (STUDY DURATION: 33 WK), Species: HAMSTER, Strain/Sex: SYRIAN/MALE, Target Tissue: Type of Lesion: PANCREAS: ADENOMA, Dose [Carcinogen]: 40 MG/KG ONCE) 12/12 (100%), 29/29 (100%), 0%, not significant; (Carcinogen: N-NITROSOBIS(2-OXYPROPYL)AMINE, 60599-38-4, Dose [Inhibitor]: 0.05, 0.1 OR 0.2 MILLIMOLAR/KG DIET FOR 32 WK STARTING 1 WK AFTER THE CARCINOGEN DOSE (STUDY DURATION: 33 WK), Species: HAMSTER, Strain/Sex: SYRIAN/MALE, Target Tissue: Type of Lesion: PANCREAS: CARCINOMA, Dose [Carcinogen]: 40 MG/KG ONCE) 6/12 (50%), 10/29 (34%), 32%, not significant; (Carcinogen: N-NITROSOBIS(2-OXYPROPYL)AMINE, 60599-38-4, Dose [Inhibitor]: 0.05, 0.1 OR 0.2 MM/KG DIET FOR 32 WK STARTING 1 WK AFTER THE CARCINOGEN DOSE (STUDY DURATION: 33 WK), Species: HAMSTER, Strain/Sex: SYRIAN/FEMALE, Target Tissue: Type of Lesion: PANCREAS: ADENOCARCINOMA, Dose [Carcinogen]: 40 MG/KG, ONCE, ONE WK PRIOR TO START OF AGENT TREATMENT) 2/10 (20%), 2/29 (7%), 65%, not significant. Also, the “tumour outcome (control, treated, inhibition, significance)” value by setting is: (Carcinogen: N-NITROSOBIS(2-OXYPROPYL)AMINE, 60599-38-4, Dose [Inhibitor]: 0.05, 0.1 OR 0.2 MM/KG DIET FOR 32 WK STARTING 1 WK AFTER THE CARCINOGEN DOSE (STUDY DURATION: 33 WK), Species: HAMSTER, Strain/Sex: SYRIAN/FEMALE, Target Tissue: Type of Lesion: PANCREAS: CARCINOMA IN SITU, Dose [Carcinogen]: 40 MG/KG, ONCE, ONE WK PRIOR TO START OF AGENT TREATMENT) 1/10 (10%), 11/29 (38%), -280%, not significant; (Carcinogen: N-NITROSOBIS(2-OXYPROPYL)AMINE, 60599-38-4, Dose [Inhibitor]: 0.05, 0.1 OR 0.2 MM/KG DIET FOR 32 WK STARTING 1 WK AFTER THE CARCINOGEN DOSE (STUDY DURATION: 33 WK), Species: HAMSTER, Strain/Sex: SYRIAN/FEMALE, Target Tissue: Type of Lesion: PANCREAS: INTRADUCTAL CARCINOMA, Dose [Carcinogen]: 40 MG/KG, ONCE, ONE WK PRIOR TO START OF AGENT TREATMENT) 2/10 (20%), 6/29 (21%), -5%, not significant; (Carcinogen: N-NITROSOBIS(2-OXYPROPYL)AMINE, 60599-38-4, Dose [Inhibitor]: 0.05, 0.1 OR 0.2 MM/KG DIET FOR 32 WK STARTING 1 WK AFTER THE CARCINOGEN DOSE (STUDY DURATION: 33 WK), Species: HAMSTER, Strain/Sex: SYRIAN/MALE, Target Tissue: Type of Lesion: PANCREAS: ADENOCARCINOMA, Dose [Carcinogen]: 40 MG/KG, ONCE, ONE WK PRIOR TO START OF AGENT TREATMENT) 1/12 (8%), 4/29 (14%), -75%, not significant; (Carcinogen: N-NITROSOBIS(2-OXYPROPYL)AMINE, 60599-38-4, Dose [Inhibitor]: 0.05, 0.1 OR 0.2 MM/KG DIET FOR 32 WK STARTING 1 WK AFTER THE CARCINOGEN DOSE (STUDY DURATION: 33 WK), Species: HAMSTER, Strain/Sex: SYRIAN/MALE, Target Tissue: Type of Lesion: PANCREAS: CARCINOMA IN SITU, Dose [Carcinogen]: 40 MG/KG, ONCE, ONE WK PRIOR TO START OF AGENT TREATMENT) 3/12 (25%), 5/29 (17%), 32%, not significant; (Carcinogen: N-NITROSOBIS(2-OXYPROPYL)AMINE, 60599-38-4, Dose [Inhibitor]: 0.05, 0.1 OR 0.2 MM/KG DIET FOR 32 WK STARTING 1 WK AFTER THE CARCINOGEN DOSE (STUDY DURATION: 33 WK), Species: HAMSTER, Strain/Sex: SYRIAN/MALE, Target Tissue: Type of Lesion: PANCREAS: INTRADUCTAL CARCINOMA, Dose [Carcinogen]: 40 MG/KG, ONCE, ONE WK PRIOR TO START OF AGENT TREATMENT) 2/12 (17%), 0/29 (0%), 100%, not significant; (Carcinogen: N-NITROSOBIS(2-OXYPROPYL)AMINE, 60599-38-4, Dose [Inhibitor]: 0.05, 0.1 OR 0.2 MM/KG DIET FOR 32 WK STARTING 1 WK AFTER THE CARCINOGEN DOSE (STUDY DURATION: 33 WK), Species: HAMSTER, Strain/Sex: SYRIAN/MALE, Target Tissue: Type of Lesion: PANCREAS: MICROCARCINOMA, Dose [Carcinogen]: 40 MG/KG, ONCE, ONE WK PRIOR TO START OF AGENT TREATMENT) 3/12 (25%), 4/29 (14%), 44%, not significant. The “tumour outcome (control, treated, inhibition, significance)” value is, setting by setting: (Carcinogen: NONE USED, Dose [Inhibitor]: 687 MG/KG DIET DAILY FOR 54 WK (STUDY DURATION: 54 WK), Species: RAT, Strain/Sex: ACI/SEGHAPBR/MALE, Target Tissue: Type of Lesion: ADRENAL GLAND: TUMOR) 15/43 (35%), 22/44 (50%), -43%, not significant; (Carcinogen: NONE USED, Dose [Inhibitor]: 687 MG/KG DIET DAILY FOR 54 WK (STUDY DURATION: 54 WK), Species: RAT, Strain/Sex: ACI/SEGHAPBR/MALE, Target Tissue: Type of Lesion: PANCREAS: ISLET CELL ADENOMA) 1/40 (3%), 8/44 (18%), -500%, p<0.05; (Carcinogen: NONE USED, Dose [Inhibitor]: 687 MG/KG DIET DAILY FOR 54 WK (STUDY DURATION: 54 WK), Species: RAT, Strain/Sex: ACI/SEGHAPBR/MALE, Target Tissue: Type of Lesion: PITUITARY GLAND: ADENOMA, CARCINOMA) 20/39 (51%), 19/41 (46%), 10%, not significant; (Carcinogen: NONE USED, Dose [Inhibitor]: 687 MG/KG DIET DAILY FOR 54 WK (STUDY DURATION: 54 WK), Species: RAT, Strain/Sex: ACI/SEGHAPBR/MALE, Target Tissue: Type of Lesion: PROSTATE GLAND: ADENOMA, CARCINOMA) 19/44 (43%), 12/43 (28%), 35%, not significant; (Carcinogen: NONE USED, Dose [Inhibitor]: 687 MG/KG DIET DAILY FOR 54 WK (STUDY DURATION: 54 WK), Species: RAT, Strain/Sex: ACI/SEGHAPBR/MALE, Target Tissue: Type of Lesion: SKIN: TUMOR) 12/45 (27%), 5/44 (11%), 59%, not significant; (Carcinogen: NONE USED, Dose [Inhibitor]: 687 MG/KG DIET DAILY FOR 54 WK (STUDY DURATION: 54 WK), Species: RAT, Strain/Sex: ACI/SEGHAPBR/MALE, Target Tissue: Type of Lesion: TESTES: INTERSTITIAL CELL TUMOR) 21/45 (47%), 27/44 (61%), -30%, not significant.
